We go through 63 compounds from a melting point compilation (Tetko et al.; mined from patent text by program, amines drawn as free bases though some values may be those of a salt).

The structures appear in SMILES notation. Bounds are passed on as bounds.

The melting point is the temperature of the solid-liquid transition. Turning to `COc1ccccc1OCC1SCCN1C(=O)CCl` (stereo not drawn), the melting point was 87 to 88 °C.

`Cc1c(C)c(N)c2c(c1C)C(c1ccc(C(C)C)cc1)CO2` (stereo not drawn) came in with a melting point of 122 to 123 °C. The value for `CC(C)(C)C(=O)c1c[nH]c2ncc(C3=C(c4ccccc4)CCC3)nc12` was 207 to 209 °C. In the case of `COc1cc(OCc2ccncc2)ccc1/C=C/c1cc(/C=C/c2ccc3cc[nH]c3c2)n[nH]1`, the melting point fell in the range of 103 to 118 °C.

`COc1cc(-c2cc(Br)cs2)cc2oc(=O)c(C)c(C)c12`: the melting point was in the range of 131 to 134 °C. Next, `Cc1ccc2c3c(c(=O)oc2c1)CN(CCN1CC2CCC(CC2)C1)CC3`: 155 to 157 °C; `CCC(C)c1cc(C=O)cc(C(C)CC)c1O` (stereo not drawn): 65 to 68 °C. Next, `Cc1cc(S(=O)(=O)Cl)c(C)c(S(=O)(=O)Cl)c1`: 24 to 27 °C.

Take `COC(=O)CCc1ccc(OCc2cccc(/C=C/c3ccccc3)c2)cc1`: the melting point lay within 100 to 101 °C. In turn, `CC(=O)N1CCN(Cc2ccc(CCn3cnc4cc(-c5ccc(Cl)cc5)sc4c3=O)cc2)C(=O)C1` had a melting point of 204 to 207 °C. Compound `O[C@H](COc1cccc2[nH]ccc12)CN1CC=C(c2c[nH]c3ccc(F)cc23)CC1` showed a melting point of 95 to 100 °C. Consider `COc1cn(-c2ccc(-n3cc(F)c(F)c3)cc2OCC(F)(F)F)nc(-c2ccnn2-c2ccccc2)c1=O`, for which the melting point was in the range of 220 to 222 °C.

The compound `CC1(CCC(=O)O)CC(=O)c2ccc(OCc3cccc(OCc4ccc5ccccc5n4)c3)cc2O1` (stereo not drawn) gave a melting point of 152 to 154 °C. For `C#CCNC(=O)N1CC(Oc2cccc(C(F)(F)F)c2)C1`, the melting point lay within 105 to 106 °C.

The compound `Cc1cc(C)c(N2CCCc3c2nn(C)c3C(=O)N2CCc3ccccc3C2)c(C)c1` came in with a melting point of 80.3 to 87.7 °C. Take `CC(C)(SCCCCCCNS(=O)(=O)c1ccc(Cl)cc1)C(=O)O`: the melting point was in the range of 93 to 94 °C. In turn, `CCOC(=O)CCc1cc(O)nn1CC(C)C` displayed a melting point of 102 to 103 °C. Next, `O=C(c1cccc(F)c1)N1CC2CC2(c2ccc(Cl)cc2)C1` (stereo not drawn): 70 to 73 °C; `COC(=O)c1nccnc1Nc1ccc(Cl)cc1[N+](=O)[O-]`: 191 to 192 °C. The value for `CCOC(=O)C(=O)Nc1c([N+](=O)[O-])sc2ccc(Br)cc12` was 157 to 160 °C; that for `CCOC(=O)c1nc2cc(F)ccc2nc1CC` was 42 to 45 °C; that for `CCCCOCCOc1ccc(-c2ccc3c(c2)C=C(C(=O)Nc2ccc([C@H](O)c4ccccn4)cc2)CCN3S(C)(=O)=O)cc1` was 158 to 160 °C. Next, `CC(C)(C)[Si](C)(C)OC[C@H]1OC[C@@H](n2cnc3cc(Cl)c(Cl)cc32)C[C@@H]1O`: 143 to 155 °C. Consider `CNC(=O)n1nc(Oc2ccc(C(F)(F)F)cc2[N+](=O)[O-])cc1C(F)(F)F`, for which the melting point lay within 102 to 104 °C.

Regarding `CCNC(=O)Nc1ccc(CC(CO)NCC(O)COc2ccccc2)cc1` (stereo not drawn), the melting point lay in the range of 129 to 130 °C. The value for `C=Cn1ccnc1C(O)(c1ccc(C(C)(C)C)cc1)c1ccc(C(C)(C)C)cc1` was 169 to 170 °C. `Cc1cccc(-c2[nH]c(C(C)C)nc2-c2cccc(-c3ccc(F)cc3)c2)n1` had a melting point of 83 to 85 °C. Next, `CC1(COc2ccc(N3CCC(Oc4ccc(OC(F)(F)F)cc4)CC3)cc2)Cn2cc([N+](=O)[O-])nc2O1` (stereo not drawn): 165 to 166 °C.

The compound `O=C(SCCC(=O)N1c2ccccc2CCC1C(=O)O)c1ccccc1` (stereo not drawn) came in with a melting point of 99 to 101 °C. With `COc1cccc(-c2n[nH]c(-c3ccccc3CO)n2)c1`, the melting point was in the range of 155 to 156 °C.

On to `C=COC(=O)N1C[C@@H]2SCCC(c3ccccc3)(c3ccccc3)[C@@H]2C1` (racemic), for which the melting point was 160 °C. Regarding `CCOC(=O)C1=C(C)Nc2ncnc(OC(C)C)c2C1c1ccccc1C(F)(F)F` (stereo not drawn), the melting point worked out at 155 °C. Next, `O=C(O)C1(Cc2ccccc2)CCN(Cc2ccccc2)C1` (stereo not drawn): 209 to 210 °C; `CCCc1c(OCCCCCOc2ccc3c(c2CCC)OC(C(=O)O)CC3)ccc(CC)c1O` (stereo not drawn): 101 to 102 °C. Take `Cc1nc2c(N)nc3ccncc3c2n1C`: the melting point was 330 to 335 °C. Next, `CC(C)c1nn(-c2ccc(C(F)(F)F)cn2)cc1CCCCOS(C)(=O)=O`: 87 to 89 °C. The compound `Cc1cc(N)nc(Br)c1` gave a melting point of 99 °C.

As to `CC(C)(C)N1CN(Cc2ccccc2)C(N)=C2C=NN=C21`, the melting point is 138 to 140 °C.

With `O=C1CCCCN1CCc1c[nH]c2ccc(Cl)cc12`, the melting point was 155 °C. Next, `O=C(O)c1nc(C2CC2)nc(NCc2ccco2)c1Cl`: 150 to 152 °C; `CNC1(C)CN(c2cc3c(cc2F)c(=O)c(C(=O)O)cn3C(C)(C)C)C1`: 251 to 253 °C.

`O=c1oc(=O)n(Cc2ccc(F)cc2)c2ccccc12` returned a melting point of 142 to 145 °C. The value for `CCOC(=O)c1ncc2[nH]c3cccc(Oc4ccc(N)cc4)c3c2c1COC` was 222 to 224 °C. `COC(=O)C1Oc2ccccc2Cc2cccc(C)c2O1` (stereo not drawn) gave a melting point of 104 to 105 °C. Next, `CC(C)(S)C1COC(=O)N1` (stereo not drawn): 124 to 126 °C; `CCOC(=O)c1c(N2CCNCC2)c2ccc(C)nc2n(CC)c1=O`: 137 to 139 °C; `NC1CCCC(NC(=O)c2ccc(-c3[nH]nc4c3C(=O)c3c(NC(=O)NN5CCOCC5)cccc3-4)s2)C1` (stereo not drawn): over 300 °C.

In the case of `Oc1ccccc1N1CCC(CNC[C@H]2COc3ccc(Cl)cc3O2)CC1`, the melting point lay in the range of 84 to 86 °C.

In turn, `Clc1ccc(-c2c(Cc3nnn[nH]3)cnn2-c2ccccc2)cc1` showed a melting point of 230 to 232 °C.

On to `CC(C(=O)n1c(=O)oc2ccccc21)C(O)C(C)(C)C` (stereo not drawn), for which the melting point lay within 90 to 92 °C.

`COc1cc2c(cc1OC)C(NCC(=O)O)CC2` (stereo not drawn) displayed a melting point of 213 to 216 °C. Turning to `COc1ccccc1P(CC(CCCCCCO)CP(c1ccccc1OC)c1ccccc1OC)c1ccccc1OC`, the melting point was 47 to 50 °C. Next, `CC12CC(=O)C3C(CCC4CC(O)CCC43C)C1CCC2C(=O)OCC#N` (stereo not drawn): 142 to 146 °C. The compound `O=C1c2ccccc2C(=O)N1Cc1noc(CCl)n1` came in with a melting point of 96.5 to 98 °C. Next, `CON1C(C)(C)CC(OC(=O)N=NC(=O)OC2CC(C)(C)N(OC)C(C)(C)C2)CC1(C)C`: 145 to 147 °C; `CC1(C)C=C(c2ccccn2)c2ccccc2O1`: 80 to 82 °C. `CC(=O)N(CC(=O)O)c1ccc(C)cc1C` showed a melting point of 165 to 172 °C. The value for `O=C(Cc1cccc2ccccc12)Nc1cc([C@H]2C[C@@H](NC(=O)c3ccc4ccccc4n3)C2)[nH]n1` was 200 °C; that for `COc1cn(-c2ccc(C3CC3)cc2F)nc(-c2ccnn2-c2ccccc2)c1=O` was 140 to 142 °C; that for `CC(=O)OCCN1CCN(C)c2cc(Nc3ncc(Cl)c(N[C@@H]4CCCC[C@H]4NS(C)(=O)=O)n3)ccc2C1` was 110 to 142 °C. Next, `Cc1ccc(S(=O)(=O)N2CCC(Sc3ccc(Cl)cc3)CC2)cc1`: 112 to 114 °C; `COc1cc2cn(CC(O)CO)nc2cc1OC` (stereo not drawn): 113 to 115 °C; `Cc1c(NCCNCC(O)COc2ccccc2)n(C)c(=O)n(C)c1=O` (stereo not drawn): 81 to 82 °C.
